Assay results reported in patent US11408885B2, “Compositions and multiplex assays for characterizing active proteases and their inhibitors” (Massachusetts Institute of Technology, priority 2017, dated 2022).
pIC50: −log10 of the molar value.

How the values were obtained:
[1] = test system: proteases in peritoneal fluid of control donors and endometriosis patients; experiment: FRET substrate cleavage in clarified peritoneal fluid; assay type: biochemical, human; conditions: peritoneal fluids of six control donors and six endometriosis patients; 500 nM or 1500 nM HxBP-Bt
Excerpt: Clarified peritoneal fluid from patients with endometriosis was compared to that from a control population with regards to the active MMP compositions and quantities. Peritoneal fluid is a mixture of cell debris, leukocytes, and thousands of soluble proteins including over 100 proteases and protease inhibitors that is contained within the pelvic cavity and interacts with endometriotic lesions (Amon, et al, PLoS ONE, 5(6) (2010)).
All laparoscopy patients provided informed consent in accordance with a protocol approved by the Partners Human Research Committee and the Massachusetts Institute of Technology Committee on the Use of Humans as Experimental Subjects. Enrollment was limited to pre-menopausal women with regular cycles (26-32 days) and excluded individuals who had received hormonal treatment within three months of surgery. Moderate/Severe (Stage III/IV) endometriosis was diagnosed according to the revised criteria of the American Society for Reproductive Medicine 8. Peritoneal fluid was aspirated from the rectouterine pouch immediately following trocar insertion and prior to peritoneal lavage or surgical manipulation. Upon collection, specimens were immediately placed on wet ice and clarified within 15 min. by centrifugation for 10 min. at 1000 rcf. Clarified aspirates were transported to the laboratory on ice, aliquoted, and stored at −80° C. until analysis.

[2] = target: MMP10 (Homo sapiens, UniProt P09238); experiment: FRET substrate cleavage by recombinant MMP, inhibition by activity-based probe; assay type: biochemical; conditions: FRET substrate PEPDAB052 10 μM, read-out: IC50, inhibition of substrate cleavage of active MMP
Excerpt: (§1) The binding of an activity-based probe, e.g., HxBP-Bt, to the active site of an MMP (as shown in FIG. 1A) would effectively reduce (or inhibit) the ability of such MMP to cleave its substrate. […] This correlation should also provide an IC50 value to measure the sensitivity/potency of the MAMBI system to bind, and thereby quantify, active MMPs. […] Fluorescence resonance energy transfer (FRET) technique is used to determine if a substrate is cleaved by pre-labeling two parts of a substrate molecule with a donor chromophore and an acceptor chromophore, respectively, and measuring the energy transfer efficiency from the donor to the acceptor chromophore to determine if two fluorophores are within a certain distance of each other, i.e. the substrate is intact and uncleaved. Here, HxBP-Bt bound MMP samples were mixed with chromophore-labeled substrate peptides in 384-well OptiPlates® at 37° C. using timelapse fluorimetry in the Spectromax® M3 and M2e fluorimeters (Molecular Devices). The fluorescence was monitored by plate reader. In general, readings measured fluorescence every 20 minutes for roughly five hours and the reported rate of increase in fluorescence was calculated from fitting a linear portion of this increase including at least 4 data points and subtracting the average increase in background, protease-free conditions. […] Reaction velocities were calculated from linear reaction periods from raw fluorescence value time courses. […] Relative rates of FRET substrate cleavage among samples with the addition of HxBP-Bt were quantified and compared with the rates without HxBP-Bt. Activities of recombinant MMPs 1, 7, 8, 12 and 13, in the presence or absence of HxBP-Bt probe, were characterized with […]008 (Dabcyl-[…]); MMPs 2 and 9 with […]011 (Dabcyl-[…]) and MMPs 3 and 10 with […]052 (Dabcyl-[…]). […] These IC50 values were used to estimate binding off-rates in the computational model. IC50 of the inhibitor was calculated by fitting the resulting dose-dependent data with the PRISM software (GraphPad, USA)

[3] = target: MMP13 (Homo sapiens, UniProt P45452); experiment: as above; assay type: biochemical; conditions: FRET substrate PEPDAB008 10 μM, read-out: IC50, inhibition of substrate cleavage of active MMP
Excerpt: as §1

[4] = target: MMP8 (Homo sapiens, UniProt P22894); experiment: as above; assay type: biochemical; conditions: FRET substrate PEPDAB008 10 μM, read-out: IC50, inhibition of substrate cleavage of active MMP
Excerpt: as §1

[5] = test system: aggregate metalloprotease activity of conditioned medium; experiment: FRET substrate cleavage in conditioned media of cell cultures; assay type: biochemical, human
Experimental: Eight conditioned mediums were assayed, each tested in two complete biological replicates (n=2), from these cell cultures: four endometrial related cell populations including (1) primary endometrial stromal cells (pESC), (2) telomerase-immortalized human endometrial stromal cells (tHESC) (Krikun et al., Endocrinology, 145(5):2291-6 (2004)), (3) an adenocarcinoma endometrial epithelial cell line, Ishikawa, and (4) an epithelial line derived from an endometriosis lesion, 12z; three canonical cancer cell lines including (5) A549, (6) […], and (7) HT1080; as well as (8) human telomerase reverse transcriptase (hTERT) immortalized mesenchymal stem cell line (MSC).
Conditioned supernatant was prepared: collected at 12 h, spun down at 200 g for 5 min to remove debris, and immediately flash-frozen. For FRET-substrate assays involving this supernatant, final reactions were composed of a 2:1:1 mixture of […] substrate diluted from 5 mMDMSO stock into phosphate buffered saline, 4 nM active MMP7 diluted in ‘MMP buffer’, and thawed supernatant.
Validation of HxBP-Bt probe binding to the active sites of proteases in conditioned media was performed based on the FRET-based study as described in Example 1, without the addition of MMP capture beads. […]

Chain of MMP10 (P09238 99-476): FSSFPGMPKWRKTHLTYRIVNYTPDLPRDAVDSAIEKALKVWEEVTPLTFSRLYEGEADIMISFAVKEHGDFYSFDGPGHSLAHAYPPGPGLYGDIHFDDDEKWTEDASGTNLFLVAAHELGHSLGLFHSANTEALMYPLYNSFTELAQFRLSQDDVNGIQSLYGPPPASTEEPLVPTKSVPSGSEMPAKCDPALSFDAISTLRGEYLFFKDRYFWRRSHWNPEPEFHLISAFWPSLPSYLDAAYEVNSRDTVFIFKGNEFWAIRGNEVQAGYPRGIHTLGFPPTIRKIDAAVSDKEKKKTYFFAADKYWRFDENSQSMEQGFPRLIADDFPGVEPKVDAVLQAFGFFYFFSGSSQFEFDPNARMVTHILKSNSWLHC
Chain of MMP8 (P22894 101-467, species assumed): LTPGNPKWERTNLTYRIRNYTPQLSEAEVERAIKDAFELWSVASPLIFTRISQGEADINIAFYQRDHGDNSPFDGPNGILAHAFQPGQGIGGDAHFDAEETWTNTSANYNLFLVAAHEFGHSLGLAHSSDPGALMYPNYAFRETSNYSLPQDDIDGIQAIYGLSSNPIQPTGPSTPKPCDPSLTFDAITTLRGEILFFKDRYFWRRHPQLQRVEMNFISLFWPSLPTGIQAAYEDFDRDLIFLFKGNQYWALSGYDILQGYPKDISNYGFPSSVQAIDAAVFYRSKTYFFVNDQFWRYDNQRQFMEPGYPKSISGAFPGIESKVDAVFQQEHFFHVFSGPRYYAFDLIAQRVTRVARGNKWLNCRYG

With `CC(C)CC(C(=O)NC(Cc1ccc(C(=O)c2ccccc2)cc1)C(=O)NCCOCCOCCOCC(=O)NCC(C)(C)SSC(C)(C)CNC(=O)CCCCC1SCC2NC(=O)NC21)C(O)C(=O)NO` (stereo not drawn) [HxBP-Bt, biotin-tagged hydroxamate benzophenone (HxBP-Bt) probe] the “effect on substrate cleavage” value [1] was “inhibited substrate cleavage in all samples”, the pIC50 [2] was 7.54 and the pIC50 [3] was 8.64. For the same compound, the pIC50 [4] was 8.62, the “effect on substrate cleavage (bulk protease activity)” value ([5]; eight conditioned media normalized to 1000 μg/mL, 500 nM HxBP-Bt) was “greatly deceased the substrate cleavage ability” and the “effect on substrate cleavage (bulk protease activity)” value ([5]; eight conditioned media, 1500 nM HxBP-Bt, in some cases) was “further decreased the protease activities”.
